# Patent US9440953B2, “Substituted amino triazoles useful as acidic mammalian chitinase inhibitors” (OncoArendi Therapeutics Sp z o.o., priority 2014, dated 2016)
# Molecular target: recombinant human AMCase (Homo sapiens, UniProt Q9BZP6)
# Assay: Human AMCase Activity Assay
# Format: biochemical
# Conditions: recombinant hAMCase, 4-methylumbelliferyl B-D-N,N′-diacetylchitobioside substrate, citrate buffer pH 5.2, 37° C., 60 minutes
# Protocol: Human AMCase Activity Assay
# The assay was run in the 96-well plate format, each reaction in the total volume of 100 μL. 4-Methylumbelliferyl B-D-N,N′-diacetylchitobioside hydrate was used as a substrate for the enzyme. Upon hydrolysis by AMCase, the substrate releases 4-methylumbelliferyl (4MU) that, when ionized in basic pH, emits fluorescence at 460 nm.
# Briefly, 40 μL of a substrate was added to each well, followed by 10 μL of compound dilution and 50 μL of hAMCase recombinant enzyme solution. […] The fluorescence of the reaction product was measured in Perkin Elmer Envision fluorescent plate reader at an excitation wavelength of 355 nm.
# Chain of recombinant human AMCase (Q9BZP6 22-476): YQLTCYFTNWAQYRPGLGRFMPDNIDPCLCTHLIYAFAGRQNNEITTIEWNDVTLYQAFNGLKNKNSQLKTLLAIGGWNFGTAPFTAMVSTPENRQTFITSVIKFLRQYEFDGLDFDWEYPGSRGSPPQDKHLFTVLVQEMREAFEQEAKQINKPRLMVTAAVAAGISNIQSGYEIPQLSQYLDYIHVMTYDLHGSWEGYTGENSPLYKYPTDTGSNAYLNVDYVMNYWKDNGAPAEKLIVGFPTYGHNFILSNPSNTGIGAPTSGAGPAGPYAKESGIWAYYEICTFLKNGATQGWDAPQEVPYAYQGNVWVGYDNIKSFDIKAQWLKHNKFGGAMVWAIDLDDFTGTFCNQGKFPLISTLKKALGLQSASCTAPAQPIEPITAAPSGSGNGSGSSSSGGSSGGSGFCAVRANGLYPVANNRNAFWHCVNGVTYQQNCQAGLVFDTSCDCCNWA
row,IC50 [µM],SMILES
1,0.1 to 1,"Nc1n[nH]c(N2CCC(N(CCCC(=O)O)CCc3ccc(Cl)cc3)CC2)n1 [Example 27, 4-((1-(3-amino-1H-1,2,4-triazol-5-yl)piperidin-4-yl)(4-chlorophenethyl)-amino)butanoic acid]"
2,0.01 to 0.1,"Cc1ccc(CN(CCc2ccc(Cl)cc2)C2CCN(c3nc(N)n[nH]3)CC2)cc1C(=O)O [Example 6, 5-(((1-(3-amino-1H-1,2,4-triazol-5-yl)piperidin-4-yl)(4-chlorophenethyl)-amino)methyl)-2-methylbenzoic acid]"
3,0.01 to 0.1,"Nc1n[nH]c(N2CCC(N(CCc3ccc(Cl)cc3)Cc3ccc(F)c(C(=O)O)c3)CC2)n1 [Example 8, 5-(((1-(3-amino-1H-1,2,4-triazol-5-yl)piperidin-4-yl)(4-chlorophenethyl)amino)-methyl)-2-fluorobenzoic acid]"
4,0.001 to 0.01,"Nc1n[nH]c(N2CCC(N(CCc3ccc(Br)cc3)Cc3ccc(C(=O)O)cc3)CC2)n1 [Example 4, 4-(((1-(3-amino-1H-1,2,4-triazol-5-yl)piperidin-4-yl)(4-bromophenethyl)-amino)methyl)benzoic acid]"
